One assay deals with PC12. The assay is described as follows: Protective effect against ischemic cell death induced by hypoxia and low glucose (cell viability, Cell Titer-Glo). The assay is classed as cell-based, rat. As to conditions: 30 μM, 2 h, then low glucose, zero percent O2, 8 h, FIG. 1, Tukey-Kramer test. The source says: The progress of visual impairment in glaucoma is associated with retinal ganglion cell (RGC) death due to blood flow failure occurring near the optic nerve (Folia Pharmacol. Jpn. 128, 255-258 (2006)). With the use of PC12, which is a typical neural cell line established from rat adrenal […] pheochromocytoma and used also as a model cell for the functional evaluation of RGC (J Neurosci Res. 2000 May 15; 60(4): 495-503.), the cytoprotective effect of GGA against ischemic cell death induced by hypoxia and low glucose was evaluated.
Test samples were prepared as follows. The test substances were four types of GGAs that contain the all-trans form and the 5Z-mono-cis form at a weight ratio of 10:0, 8:2, 6:4, and 0:10, respectively. […]
After 8 hours of incubation, 100 μL of an equivalent mixture of a cell viability detection reagent Cell Titer-Glo (Promega) and PBS was added to each well and the luminescence produced by the reaction with ATP in living cells was measured with a luminometer (GloMax; Promega). The cell viability was calculated from the measured luminescence by the following formula and the cytoprotective effect of GGA against […] was examined.
Cell viability (%)=100×[(luminescence of base- or GGA-treated group)/(luminescence of non-treated group)]
On the technique in general: In ATP-based viability assays light output follows the ATP content of the culture.

The test system of assay [1] is rat models with glaucoma induced by NMDA. The assay is described as follows: Protective effect for retinal ganglion cells against nerve damage by NMDA (thickness of inner plexiform layer). Particulars: once per day. Format: in vivo, Sprague-Dawley (SD) rats. The source says:
In recent years the glutamate analogue NMDA (N-methyl-D-aspartate) has been widely reported to be one of causative agents of neurodegenerative diseases including Alzheimer's disease. In the ophthalmic field, NMDA is considered to be involved in optic nerve damage in glaucoma (Brain Research Bulletin, 81 (2010) 349-358). Accordingly, in this experiment rat models with glaucoma induced by NMDA were used to evaluate the neuroprotective effect of GGA.
To Sprague-Dawley (SD) rats, the all-trans form, the 5Z-mono-cis form and teprenone were separately pre-administered by oral administration (Test Example 1), intravitreal administration (Test Example 2) or ocular instillation administration (Test Example 3) and 5 μL of NMDA was administered into the vitreous body to induce nerve damage. For Test Example 2, a marketed therapeutic eye drop for glaucoma, AIPHAGAN (trade name), was intravitreally administered as a positive control once a day for five days. For each of Test Examples, a base not containing GGA or AIPHAGAN was administered as a control in the same manner as described above.
The dosage and regimen of Test Examples 1 to 3 are shown in Table 1 and the constitution of the base used in each tests are shown in Table 2.
Three days after administration of NMDA, the eyeballs were harvested, fixed with half Karnovsky's fixative for 24 hours, embedded in paraffin, thin sectioned and stained with hematoxylin-eosin (HE) to prepare histopathological sections. The histological sections were observed under an optical microscope and the thickness (μm) of the inner plexiform layer (IPL) of the retina was measured. From the thickness of the inner plexiform layer (IPL) of the retina, the neuroprotective effects of the test preparations were evaluated.

The subject of another assay is glaucoma rat model. As to conditions: intraperitoneal administration; Non Patent Literature 2; cited from earlier work.
In assay [2] the test system is multiple sclerosis mouse model. Particulars: oral administration; Non Patent Literature 5; cited from earlier work.
Assay [3] concerns mouse with visual cell damage induced by light irradiation. As to conditions: oral administration; Non Patent Literature 3; cited from earlier work.
The test system of assay [4] is retinal detachment-induced animal. Particulars: intraperitoneal administration; Non Patent Literature 1; cited from earlier work.
The test system of assay [5] is mouse with retinal injury induced by ischemia. As to conditions: oral administration; Non Patent Literature 4; cited from earlier work.
[6] abbreviates: Test Example 1: oral, 800 mg/kg, 2 days, NMDA 4 mM, FIG. 6.

Turning to `CC(=O)CC/C=C(/C)CC/C=C(\C)CC/C=C(\C)CCC=C(C)C` [5Z-mono-cis form, (5Z,9E,13E)-6,10,14,18-tetramethyl-5,9,13,17-nonadecatetrae n-2-one], the “Cytoprotective effect compared with GGA of weight ratio 6:4” value with PC12 is recorded as “significantly higher cytoprotective effects”. The “Neuroprotective effect against nerve damage by NMDA compared with the base (IPL thickness)” value in assay [1] (setting [6]) is “significant neuroprotective effects”; in assay [1] (Test Example 2: intravitreal, 0.05% w/v, 5 days, NMDA 40 mM, FIG. 7), “significant neuroprotective effects”.
Turning to teprenone, in the assay with glaucoma rat model, the “Expression of heat shock protein 72” value is given as “induced the expression of heat shock protein 72”, the Optic nerve damage entry is listed as “ameliorated optic nerve damage” and the “Retinal ganglion cell death” value is “reduced retinal ganglion cell death”. In assay [2], the “Cell loss in the ganglion” value is “prevented cell loss”, the “Number of degenerating axons in the optic nerve” value is “reduced the number of degenerating axons” and the Visual function entry is given as “improved the visual function”. Also, in assay [1] (setting [6]), the “Neuroprotective effect against nerve damage by NMDA compared with the base (IPL thickness)” value is given as “did not show a significant neuroprotective effect”. The “Thioredoxin and heat shock protein 72 in the retinal pigment epithelium” value in assay [3] is “induced thioredoxin and heat shock protein 72”. Besides, in assay [4], the “Apoptosis of visual cells” value was “reduced the apoptosis of visual cells significantly” and the “Expression of heat shock protein 70” value is on record as “induced the expression of heat shock protein 70”. In addition, the “Number of surviving retinal neurons” value in assay [5] is “significantly increased”.

Values taken from US20140350119A1, “OPHTHALMIC COMPOSITION COMPRISING GERANYLGERANYLACETONE” (ROHTO PHARMACEUTICAL CO., LTD., priority 2012, published 2014).
